Experimental data published in PubChem BioAssay AID1918952 (Molecular Pharmacology Branch, DTP, NCI, 2023).
pIC50: −log10 of the molar value.

Test system: LG0703-F948-PDC complex spheroid viability
Assay: Anticancer human tumor LG0703-F948-PDC patient-derived lung adenocarcinoma cell line growth inhibition
Conditions: for pIC50: curve of first compound; for viability, T/C: stronger effect = lower value
In short: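 Complex spheroids of tumor cells with HUVEC and human MSCs, exposed to iadademstat combined with other agents. Each agent tested in half-log steps from near clinical Cmax (else 10 microM top), DMSO ≤0.25%.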

[1] = second compound 0.1 µM, first compound 0.0316 µM
[2] = second compound 0.1 µM, first compound 0.1 µM
[3] = second compound 0.1 µM, first compound 0.316 µM
[4] = second compound 0.1 µM, first compound 1 µM
[5] = second compound 0.1 µM, first compound 3.16 µM
[6] = second compound 0.1 µM, first compound 10 µM
[7] = second compound 0.316 µM, first compound 0.0316 µM
[8] = second compound 0.316 µM, first compound 0.1 µM
[9] = second compound 0.316 µM, first compound 0.316 µM
[10] = second compound 0.316 µM, first compound 1 µM
[11] = second compound 0.316 µM, first compound 3.16 µM
[12] = second compound 0.316 µM, first compound 10 µM
[13] = second compound 1 µM, first compound 0.0316 µM
[14] = second compound 1 µM, first compound 0.1 µM
[15] = second compound 1 µM, first compound 0.316 µM
[16] = second compound 1 µM, first compound 1 µM
[17] = second compound 1 µM, first compound 3.16 µM
[18] = second compound 1 µM, first compound 10 µM
[19] = second compound 3.16 µM, first compound 0.0316 µM
[20] = second compound 3.16 µM, first compound 0.1 µM
[21] = second compound 3.16 µM, first compound 0.316 µM
[22] = second compound 3.16 µM, first compound 1 µM
[23] = second compound 3.16 µM, first compound 3.16 µM
[24] = second compound 3.16 µM, first compound 10 µM
[25] = second compound 10 µM, first compound 0.0316 µM
[26] = second compound 10 µM, first compound 0.1 µM
[27] = second compound 10 µM, first compound 0.316 µM
[28] = second compound 10 µM, first compound 1 µM
[29] = second compound 10 µM, first compound 3.16 µM
[30] = second compound 10 µM, first compound 10 µM
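Further: spheroids exposed to agents for seven days before readout.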
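Wherever viability, T/C is given: 100% = DMSO vehicle control wells as normalization base.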

| Compound | pIC50 (second compound 0.1 µM) | pIC50 (second compound 0.316 µM) | pIC50 (second compound 1 µM) | pIC50 (second compound 3.16 µM) | pIC50 (second compound 10 µM) | viability, T/C [1] | viability, T/C [2] | viability, T/C [3] | viability, T/C [4] | viability, T/C [7] | viability, T/C [8] | viability, T/C [9] | viability, T/C [10] | viability, T/C [13] | viability, T/C [14] | viability, T/C [15] | viability, T/C [16] | viability, T/C [19] | viability, T/C [20] | viability, T/C [21] | further results |
| --- | --- | --- | --- | --- | --- | --- | --- | --- | --- | --- | --- | --- | --- | --- | --- | --- | --- | --- | --- | --- | --- |
| CC(C)c1c(-c2ccccc2)nc2c(C#N)c[nH]n2c1=O + NC1CC1c1ccc(-c2cccc(O)c2)cc1 | < 5.00 | < 5.00 | < 5.00 | < 5.00 | < 5.00 | 107% | 102% | 115% | 94.3% | 97.5% | 106% | 117% | 108% | 102% | 109% | 109% | 109% | 97.7% | 93.4% | 92.5% | viability, T/C [5]: 110%; viability, T/C [6]: 82.7%; viability, T/C [11]: 104%; viability, T/C [12]: 91.8%; viability, T/C [17]: 90.6%; viability, T/C [18]: 69.7%; viability, T/C [22]: 99.8%; viability, T/C [23]: 80.3%; viability, T/C [24]: 82.3%; viability, T/C [25]: 97.9%; viability, T/C [26]: 97.6%; viability, T/C [27]: 94.9%; viability, T/C [28]: 85.3%; viability, T/C [29]: 88.8%; viability, T/C [30]: 74.2% |
| CC1COCCN1c1cc(-c2ccnn2C)c2ccnc(-c3ccn[nH]3)c2n1 (stereo not given) + NC1CC1c1ccc(-c2cccc(O)c2)cc1 | 7.43 | 7.35 | 7.31 | 7.36 | 7.33 | 49.8% | 32.7% | 20.2% | 7.17% | 57.9% | 33.9% | 18.7% | 6.39% | 64.1% | 27.9% | 21.6% | 6.68% | 55.7% | 31.4% | 19.1% | viability, T/C (second compound 0.1 µM, first compound 0.00316 µM): 80.4%; viability, T/C (second compound 0.1 µM, first compound 0.01 µM): 74.6%; viability, T/C (second compound 0.316 µM, first compound 0.00316 µM): 85.5%; viability, T/C (second compound 0.316 µM, first compound 0.01 µM): 72.3%; viability, T/C (second compound 1 µM, first compound 0.00316 µM): 73%; viability, T/C (second compound 1 µM, first compound 0.01 µM): 70.2%; viability, T/C (second compound 3.16 µM, first compound 0.00316 µM): 80.8%; viability, T/C (second compound 3.16 µM, first compound 0.01 µM): 77%; viability, T/C [22]: 6.21%; viability, T/C (second compound 10 µM, first compound 0.00316 µM): 91.1%; viability, T/C (second compound 10 µM, first compound 0.01 µM): 82.3%; viability, T/C [25]: 60.4%; viability, T/C [26]: 28.6%; viability, T/C [27]: 18.8%; viability, T/C [28]: 8.21% |
| COc1ccc([C@@H](O)c2cc(-c3ncnc4cc(N5CCOCC5)ccc34)c(F)cc2Cl)nn1 + NC1CC1c1ccc(-c2cccc(O)c2)cc1 | 5.82 | 5.80 | 5.83 | 5.92 | 5.94 | 90.3% | 110% | 96.5% | 61% | 112% | 98.2% | 98.7% | 68.2% | 98.8% | 96.7% | 98.7% | 63.8% | 107% | 101% | 86.1% | viability, T/C [5]: 27.2%; viability, T/C [6]: 3.8%; viability, T/C [11]: 23%; viability, T/C [12]: 4.64%; viability, T/C [17]: 21.7%; viability, T/C [18]: 3.41%; viability, T/C [22]: 59.2%; viability, T/C [23]: 16.3%; viability, T/C [24]: 2.59%; viability, T/C [25]: 108%; viability, T/C [26]: 99.4%; viability, T/C [27]: 90.4%; viability, T/C [28]: 57.9%; viability, T/C [29]: 7.24%; viability, T/C [30]: 2.33% |
